Among the data in ChEMBL document CHEMBL1141412, “Search for cell motility and angiogenesis inhibitors with potential anticancer activity: beauvericin and other constituents of two endophytic strains of Fusarium oxysporum” (J Nat Prod, 2007) are Activity, IC50 and IC25 values, retold here.

Activity calls are given as the source filed them. No cut-off for these calls is given here.

The subject of data set [1] is NCI-H460. In words: Cytotoxicity against human NCI-H460 cells at 2 ug/mL after 72 hrs by MTT assay. The format is cell-based. To be noted: nci-h460, 72 h.
For data set [2], the system named is MIA PaCa-2. In words: Cytotoxicity against human MIAPaCa2 cells at 4 ug/mL after 72 hrs by MTT assay. The format is cell-based. To be noted: mia paca-2, 72 h. For orientation: Formazan colour is commonly taken as a measure of viable cells.
Data set [3] has as its system NCI-H460. Put plainly: Cytotoxicity against human NCI-H460 cells at 4 ug/mL after 72 hrs by MTT assay. It counts as cell-based. To be noted: nci-h460, 72 h.
Data set [4] relates to SF-268. In words: Cytotoxicity against human SF268 cells at 4 ug/mL after 72 hrs by MTT assay. It counts as functional, cell-based.
Data set [5] concerns MCF7. In words: Cytotoxicity against human MCF7 cells at 4 ug/mL after 72 hrs by MTT assay. It counts as cell-based. The note with it: mcf7, 72 h.
The test system of data set [6] is SF-268. In words: Cytotoxicity against human SF268 cells at 2 ug/mL after 72 hrs by MTT assay. The format is functional, cell-based.
For data set [7], the system named is MCF7. Put plainly: Cytotoxicity against human MCF7 cells at 2 ug/mL after 72 hrs by MTT assay. It counts as cell-based. To be noted: mcf7, 72 h.
In data set [8] the test system is MIA PaCa-2. Put plainly: Cytotoxicity against human MIAPaCa2 cells at 2 ug/mL after 72 hrs by MTT assay. The format is cell-based. To be noted: mia paca-2, 72 h.
Data set [9] relates to SF-268. In words: Cytotoxicity against human SF268 cells after 72 hrs by MTT assay. The format is functional, cell-based. To be noted: SF-268, 72 h.
Data set [10] deals with MIA PaCa-2. Put plainly: Cytotoxicity against human MIAPaCa2 cells after 72 hrs by MTT assay. The note with it: MIA PaCa-2, 72 h. The format is cell-based.
The test system of data set [11] is NCI-H460. In words: Cytotoxicity against human NCI-H460 cells after 72 hrs by MTT assay. It counts as cell-based. To be noted: NCI-H460, 72 h.
A short description of data set [12]: Inhibition of cell proliferation in PC3M cells after 20 hrs by MTT assay. It counts as functional, cell-based. The note with it: Homo sapiens, PC-3M.
In data set [13] the test system is MCF7. In words: Cytotoxicity against human MCF7 cells after 72 hrs by MTT assay. The note with it: MCF7, 72 h. It counts as cell-based.
The nature of data set [14]: Antiangiogenic activity in HUVEC-2 cells assessed as inhibition of endothelial cell network formation after 16 hrs. The format is functional, cell-based. The note with it: Homo sapiens.
The subject of data set [15] is MDA-MB-231. Put plainly: Inhibition of cell proliferation in MDA-MB-231 cells after 40 hrs by MTT assay. It counts as functional, cell-based. To be noted: Homo sapiens, MDA-MB-231, 40 h.
Data set [16] deals with HUVEC. Put plainly: Antiangiogenic activity in HUVEC-2 cells assessed as inhibition of endothelial cell network formation after 16 hrs at 3 uM. To be noted: Homo sapiens. The format is functional, cell-based.

Consider `COC1=CC(=O)c2c(cc3oc4cc(OC)cc(C)c4c(=O)c3c2O)C1=O`, for which the Activity entry in [1], in [2], in data set [3], in [5], in [7] and in [8] was “Not Active” each time. In addition, the outcome in data set [4] and in [6] was inactive.
Usually IC50 stands for the midpoint of a concentration-inhibition curve. Turning to `COc1cccc2c1C(=O)c1c(O)c3c(c(O)c1C2=O)C[C@@](O)(C(=O)CO)C[C@@H]3O[C@H]1C[C@H](N)[C@H](O)[C@H](C)O1` [DOXORUBICIN], the IC50 in [9] was found to be 0.04 µM; in data set [10], 0.05 µM; in data set [11], 0.01 µM.
The term IC25 denotes the concentration needed for an effect of 25%. In the case of `CC(C)[C@@H]1OC(=O)[C@@H](Cc2ccccc2)N(C)C(=O)[C@H](C(C)C)OC(=O)[C@@H](Cc2ccccc2)N(C)C(=O)[C@H](C(C)C)OC(=O)[C@@H](Cc2ccccc2)N(C)C1=O` [BEAUVERICIN], the IC25 in [12] was 2.3 µM; in data set [14], 5 µM; in data set [15] it was 6.4 µM. In addition, the IC50 in [12] is 3.8 µM; in [13], 1.81 µM; in data set [14] it was 7.5 µM; in [9], 2.29 µM; in data set [15], 7.5 µM; in data set [10], 1.66 µM. Further, the IC50 in data set [11] came to 1.41 µM. The outcome in data set [16] was Active.
As to `COC1=CC(=O)c2c(c(O)c3oc4cc(OC)cc(C)c4c(=O)c3c2O)C1=O` [BIKAVERIN], the half-maximal inhibitory concentration (IC50) in [13] amounted to 0.42 µM; in data set [9] it was 0.38 µM; in data set [10] it was 0.26 µM; in [11] it was 0.43 µM.
